Measured values as given in US9023843B2, “Antimicrobial compounds and methods of making and using the same” (Melinta Therapeutics, Inc., priority 2009, dated 2015).

tested on: Eschericia coli strain ATCC25922; test: standard microdilution assay to determine minimum inhibitory concentrations (MICs); type: cell-based; conditions: Escherichia coli, read-out: E. coli ATCC25922 MIC
Experimental: Minimum inhibitory concentrations (MICs) are determined by the microdilution method, typically in a final volume of 100 microliters, according to protocols outlined by The Clinical and Laboratory Standards Institute [CLSI; formerly the National Committee for Clinical Laboratory Standards (NCCLS)]. See CLSI: Methods for dilution antimicrobial susceptibility tests for bacteria that grow aerobically; approved standard-fifth edition. Wayne, Pa.: NCCLS; 2000. The assays can be also be performed in microtiter trays according to conventional methodologies as published by the CLSI. See CLSI. Methods for Dilution Antimicrobial Susceptibility Tests for Bacteria That Grow Aerobically; Approved Standard-Seventh Edition. CLSI Document M7-A7 [ISBN 1-56238-587-9] CLSI, 940 West Valley Road, Suite 1400, Wayne Pa. 19087-1898 USA, 2006).
The compounds of the present invention were tested for antimicrobial activity. The compounds were run against Eschericia coli strain ATCC25922 using a standard microdilution assay to determine minimum inhibitory concentrations (MICs). […] A “N/A” means that data is unavailable. It will be recognized by one skilled in the art that the compounds can be assessed against other bacterial organisms and that the presentation of data for activity against Eschericia coli is illustrative and in no way is intended to limit the scope of the present invention. The compounds of the present invention can be assayed against a range of other microorganisms depending upon the performance activity desired to be gathered. Furthermore, the “+”, “−”, and “N/A” representation and the selection of a cutoff value of 16 micrograms/ml is also illustrative and in no way is intended to limit the scope of the present invention.

Row | Structure (SMILES) | MIC [mg/L]
1 | N#Cc1cccc(-c2ccc3c(c2)Nc2nc(=O)n(C4CCCN(CCCNC(=N)N)CC4)cc2O3)c1 (stereo not drawn) [Compound 676] | > 16
2 | Cn1cnc(S(=O)(=O)N2CCC(c3ccc4c(c3)Nc3nc(=O)n(C5CCN(CCCNC(=N)N)CC5)cc3O4)CC2)c1 [Compound 681] | > 16
3 | N=C(N)NCCCN1CCC(n2cc3c(nc2=O)Nc2cc(C(=O)Nc4cc(F)c(F)cc4F)ccc2O3)CC1 [Compound 685] | > 16
4 | N=C(N)NCCCN1CCC(n2cc3c(nc2=O)Nc2cc(C(=O)Nc4ncn[nH]4)ccc2O3)CC1 [Compound 686] | > 16
5 | N=C(N)NCCCN1CCC(n2cc3c(nc2=O)Nc2cc(-c4ccc(C(F)(F)F)nc4)ccc2O3)CC1 [Compound 690] | > 16
6 | CN(C)CC(=O)N1CCC(c2ccc3c(c2)Nc2nc(=O)n(C4CCN(CCCNC(=N)N)CC4)cc2O3)CC1 [Compound 691] | > 16
7 | N=C(N)NCCCN1CCC(n2cc3c(nc2=O)Nc2cc(C4CCN(S(=O)(=O)C5CC5)CC4)ccc2O3)CC1 [Compound 694] | > 16
8 | NCCCN1CCC(n2cc3c(nc2=O)Nc2cc(C4CCN(C(=O)CN)CC4)ccc2O3)CC1 [Compound 714] | > 16
9 | N=C(N)NCCCN1CCC(n2cc3c(nc2=O)Nc2cc(C4CCN(C(=O)C(N)CO)CC4)ccc2O3)CC1 (stereo not drawn) [Compound 718] | > 16
10 | N=C(N)NCCCN1CCC(n2cc3c(nc2=O)Nc2cc(C4CCN(C(=O)Nc5ccc(F)c(Cl)c5)CC4)ccc2O3)CC1 [Compound 730] | > 16
11 | N=C(N)NCCCN1CCC(n2cc3c(nc2=O)Nc2cc(C4CCN(C(=O)Nc5ccc(F)cc5)CC4)ccc2O3)CC1 [Compound 733] | > 16
12 | N=C(N)NCCCN1CCC(n2cc3c(nc2=O)Nc2cc(C4CCN(S(=O)(=O)c5cccnc5)CC4)ccc2O3)CC1 [Compound 738] | > 16
13 | NCCCN1CCC(n2cc3c(nc2=O)Nc2cc(C4CCN(C(=O)CN(Cc5ccc(F)c(F)c5)C5CCNCC5)CC4)ccc2O3)CC1 [Compound 748] | > 16
14 | Cn1cnc(S(=O)(=O)N2CCC(c3ccc4c(c3)Nc3nc(=O)n(C5CCC(NCCCNC(=N)N)CC5)cc3O4)CC2)c1 (stereo not drawn) [Compound 750] | > 16
15 | N=C(N)NCCCNC1CCC(n2cc3c(nc2=O)Nc2cc(C(=O)NCCc4c[nH]cn4)ccc2O3)CC1 (stereo not drawn) [Compound 763] | > 16
16 | N=C(N)NCCCN1CCC(n2cc3c(nc2=O)Nc2cc(C4CCN(C(=O)Nc5cc(F)c(F)cc5F)CC4)ccc2O3)CC1 [Compound 782] | > 16
17 | NCCCN1CCCC(n2cc3c(nc2=O)Nc2cc(C4CCN(C(=O)CCN)CC4)ccc2O3)CC1 (stereo not drawn) [Compound 795] | > 16
18 | NCCCN1CCC(n2cc3c(nc2=O)Nc2cc(C(=O)NCCN4CCC[C@H](N)C4)ccc2O3)CC1 [Compound 798] | > 16
19 | O=C(NCCCN1CCNCC1)c1ccc2c(c1)Nc1nc(=O)n(CCO)cc1O2 [Compound 858] | > 16
20 | NCCCN1CCCC(n2cc3c(nc2=O)Nc2cc(C(=O)N4CCC[C@H](N)C4)ccc2O3)CC1 (stereo partly drawn) [Compound 870] | > 16
21 | NCCCN1CCCC(n2cc3c(nc2=O)Nc2cc(C(=O)N4CCC[C@@H](N)C4)ccc2O3)CC1 (stereo partly drawn) [Compound 888] | > 16
22 | O=C(NCCCN1CCNCC1)c1ccc2c(c1)Nc1nc(=O)n(C3CCCNCC3)cc1O2 (stereo not drawn) [Compound 890] | > 16
23 | NC1CCCN(C(=O)c2ccc3c(c2)Nc2nc(=O)n(C4CCCNCC4)cc2O3)C1 (stereo not drawn) [Compound 891] | > 16
24 | NC1CCC(n2cc3c(nc2=O)Nc2cc(CC(=O)NCCCN4CCNCC4)ccc2O3)CC1 (stereo not drawn) [Compound 903] | > 16
25 | N[C@@H]1CCCN(C(=O)c2ccc3c(c2)Nc2nc(=O)n(C4CCCNCC4)cc2O3)C1 (stereo partly drawn) [Compound 908] | > 16
26 | CCn1cc2c(nc1=O)Nc1cc(CNCCCN3CCNCC3)ccc1O2 [Compound 919] | > 16
27 | O=c1nc2c(cn1C1CCCNCC1)Oc1ccc(CNCCCN3CCNCC3)cc1N2 (stereo not drawn) [Compound 920] | > 16
28 | N[C@H]1CCCN(CCNCc2ccc3c(c2)Nc2nc(=O)n(C4CCCNCC4)cc2O3)C1 (stereo partly drawn) [Compound 921] | > 16
29 | NCCCN1CCC(n2cc3c(nc2=O)N[C@@H]2CCCC[C@H]2O3)CC1 [Compound 929] | > 16
30 | NC1CCC(n2cc3c(nc2=O)Nc2cc(C4CCNCC4)ccc2O3)CC1 (stereo not drawn) [Compound 972] | > 16

Results, then the compound that gave them:

Row | MIC [mg/L] | Structure (SMILES)
31 | > 16 | NCCCN1CCC(n2cc3c(nc2=O)Nc2cc(C(=O)NCCc4ccc(F)cc4)ccc2O3)CC1 [Compound 660]
32 | > 16 | N=C(N)NCCCN1CCCC(n2cc3c(nc2=O)Nc2cc(-c4ccc(N5CCOCC5)cc4)ccc2O3)CC1 (stereo not drawn) [Compound 664]
33 | > 16 | N=C(N)NCCCN1CCCC(n2cc3c(nc2=O)Nc2cc(-c4ccc(C(F)(F)F)nc4)ccc2O3)CC1 (stereo not drawn) [Compound 667]
34 | > 16 | N=C(N)NCCCN1CCC(n2cc3c(nc2=O)Nc2cc(C(=O)NCCN4CCOCC4)ccc2O3)CC1 [Compound 669]
35 | > 16 | N=C(N)NCCCNC1CCC(n2cc3c(nc2=O)Nc2cc(-c4ccc(C(F)(F)F)nc4)ccc2O3)CC1 (stereo not drawn) [Compound 671]
36 | > 16 | NCCCNC1CCC(n2cc3c(nc2=O)Nc2cc(-c4ccc(C(F)(F)F)nc4)ccc2O3)CC1 (stereo not drawn) [Compound 672]
37 | > 16 | N=C(N)NCCCN1CCC(n2cc3c(nc2=O)Nc2cc(C(=O)NCCCN4CCCC4=O)ccc2O3)CC1 [Compound 674]
38 | > 16 | N=C(N)NCCCN1CCC(n2cc3c(nc2=O)Nc2cc(C(=O)Nc4ccccc4OC(F)(F)F)ccc2O3)CC1 [Compound 675]
39 | < 16 | N=C(N)NCCCN1CCCC(n2cc3c(nc2=O)Nc2cc(C(=O)NCCc4cnc[nH]4)ccc2O3)CC1 (stereo not drawn) [Compound 707]
40 | < 16 | N=C(N)NCCCN1CCCC(n2cc3c(nc2=O)Nc2cc(C(=O)NCCC4CCNCC4)ccc2O3)CC1 (stereo not drawn) [Compound 708]
41 | < 16 | N=C(N)NCCCN1CCC(n2cc3c(nc2=O)Nc2cc(C4CCN(C(=O)CNC(=N)N)CC4)ccc2O3)CC1 [Compound 715]
42 | < 16 | N=C(N)NCCCN1CCC(n2cc3c(nc2=O)Nc2cc(C4CCN(C(=O)Nc5ccc(C(F)(F)F)cc5)CC4)ccc2O3)CC1 [Compound 729]
43 | < 16 | NCCCNC1CCC(n2cc3c(nc2=O)Nc2cc(C(=O)NCCCN4CCNCC4)ccc2O3)CC1 (stereo not drawn) [Compound 731]
44 | < 16 | N=C(N)NCCCNC1CCC(n2cc3c(nc2=O)Nc2cc(C(=O)NCCCN4CCNCC4)ccc2O3)CC1 (stereo not drawn) [Compound 732]
45 | < 16 | NCCCNC1CCC(n2cc3c(nc2=O)Nc2cc(C(=O)NCCN4CCNCC4)ccc2O3)CC1 (stereo not drawn) [Compound 740]
46 | < 16 | N=C(N)NCCCNC1CCC(n2cc3c(nc2=O)Nc2cc(C(=O)NCCN4CCNCC4)ccc2O3)CC1 (stereo not drawn) [Compound 741]
47 | < 16 | N=C(N)NCCCN1CCC(n2cc3c(nc2=O)Nc2cc(C4CCN(C(=O)CN(Cc5ccc(F)c(F)c5)C5CCNCC5)CC4)ccc2O3)CC1 [Compound 749]

Row | MIC [mg/L] | Structure (SMILES)
48 | < 16 | CN(C)CC(=O)N1CCC(c2ccc3c(c2)Nc2nc(=O)n(C4CCC(NCCCNC(=N)N)CC4)cc2O3)CC1 (stereo not drawn) [Compound 751]
49 | < 16 | N=C(N)NCCCNC1CCC(n2cc3c(nc2=O)Nc2cc(C4CCN(C(=O)CNC(=N)N)CC4)ccc2O3)CC1 (stereo not drawn) [Compound 752]
50 | < 16 | N=C(N)NCCCNC1CCC(n2cc3c(nc2=O)Nc2cc(C4CCN(C(=O)CN(Cc5ccc(F)c(F)c5)C5CCNCC5)CC4)ccc2O3)CC1 (stereo not drawn) [Compound 753]
51 | < 16 | NCCCNC1CCC(n2cc3c(nc2=O)Nc2cc(C4CCN(C(=O)CN(Cc5ccc(F)c(F)c5)C5CCNCC5)CC4)ccc2O3)CC1 (stereo not drawn) [Compound 754]
52 | < 16 | N=C(N)NCCCNC1CCC(n2cc3c(nc2=O)Nc2cc(C4CCN(C(=O)Nc5ccc(F)cc5)CC4)ccc2O3)CC1 (stereo not drawn) [Compound 765]
53 | < 16 | CN1CCN(CCCNC(=O)c2ccc3c(c2)Nc2nc(=O)n(C4CCC(NCCCNC(=N)N)CC4)cc2O3)CC1 (stereo not drawn) [Compound 774]
54 | < 16 | N=C(N)NCCCNC1CCC(n2cc3c(nc2=O)Nc2cc(C4CCN(C(=O)C5(N)CC5)CC4)ccc2O3)CC1 (stereo not drawn) [Compound 776]
55 | < 16 | N=C(N)NCCCN1CCCC(n2cc3c(nc2=O)Nc2cc(C4CCN(C(=O)C5(N)CCCC5)CC4)ccc2O3)CC1 (stereo not drawn) [Compound 777]
56 | < 16 | N=C(N)NCCCNC1CCC(n2cc3c(nc2=O)Nc2cc(C(=O)NCCCN4CCOCC4)ccc2O3)CC1 (stereo not drawn) [Compound 781]
57 | < 16 | N=C(N)NCCCNC1CCC(n2cc3c(nc2=O)Nc2cc(C4CCN(C(=O)C5(N)CCCC5)CC4)ccc2O3)CC1 (stereo not drawn) [Compound 783]
58 | < 16 | N=C(N)NCCCN1CCCC(n2cc3c(nc2=O)Nc2cc(C4CCN(C(=O)CN)CC4)ccc2O3)CC1 (stereo not drawn) [Compound 793]
59 | < 16 | N=C(N)NCC(=O)N1CCC(c2ccc3c(c2)Nc2nc(=O)n(C4CCCN(CCCN)CC4)cc2O3)CC1 (stereo not drawn) [Compound 832]
60 | < 16 | N=C(N)NCCCN1CCCC(n2cc3c(nc2=O)Nc2cc(C4CCN(C(N)=O)CC4)ccc2O3)CC1 (stereo not drawn) [Compound 833]
61 | < 16 | N=C(N)NCCCNC1CCC(n2cc3c(nc2=O)Nc2cc(C4=CCNCC4)ccc2O3)CC1 (stereo not drawn) [Compound 938]
62 | < 16 | N=C(N)NCCCN1CCCC(n2cc3c(nc2=O)Nc2cc(C(=O)N4CCC[C@H](N)C4)ccc2O3)CC1 (stereo partly drawn) [Compound 950]
63 | < 16 | N=C(N)NCCCN[C@H]1CC[C@H](n2cc3c(nc2=O)Nc2cc(CCN4CCOCC4)ccc2O3)CC1 [Compound 956]
